Assay results published in the NIST ThermoML archive (doi:10.1021/je400149j).

Experiment: relative permittivity at zero frequency (dimensionless); xn = mol fraction of the nth substance listed
Details: 101 kPa, Liquid, impedance/gain phase analyzer

C[S+](C)[O-] [dimethyl sulfoxide] + O
relative permittivity at zero frequency
Details | x1 = 0.1536 | x1 = 0.2496 | x1 = 0.3505 | x1 = 0.4975 | x1 = 0.5991 | x1 = 0.7039 | x1 = 0.7882 | x1 = 0.8297 | x1 = 0.9159 | x1 = 1
253.15 K | 91.94 | 88.58 | 84.04 | 76.79 | – | – | – | – | – | –
255.15 K | 91.25 | 87.74 | 83.36 | 76.23 | – | – | – | – | – | –
257.15 K | 90.45 | 86.97 | 82.67 | 75.63 | – | – | – | – | – | –
259.15 K | 89.61 | 86.2 | 82.03 | 75.1 | – | – | – | – | – | –
261.15 K | 88.8 | 85.42 | 81.31 | 74.51 | 69.37 | – | – | – | – | –
263.15 K | 87.94 | 84.64 | 80.65 | 73.97 | 68.84 | – | – | – | – | –
265.15 K | 87.11 | 83.94 | 79.97 | 73.39 | 68.38 | – | – | – | – | –
267.15 K | 86.34 | 83.09 | 79.33 | 72.86 | 67.89 | – | – | – | – | –
269.15 K | 85.49 | 82.43 | 78.71 | 72.29 | 67.37 | – | – | – | – | –
271.15 K | 84.69 | 81.68 | 78.01 | 71.63 | 66.92 | – | – | – | – | –
273.15 K | 83.99 | 80.92 | 77.39 | 71.06 | 66.4 | 60.97 | – | – | – | –
275.15 K | 83.16 | 80.24 | 76.74 | 70.47 | 65.94 | 60.58 | – | – | – | –
277.15 K | 82.38 | 79.52 | 75.92 | 69.92 | 65.48 | 60.19 | – | – | – | –
279.15 K | 81.7 | 78.75 | 75.25 | 69.35 | 65 | 59.84 | 56.06 | – | – | –
281.15 K | 80.98 | 78.14 | 74.63 | 68.84 | 64.52 | 59.46 | 55.83 | – | – | –
283.15 K | 80.31 | 77.42 | 74.04 | 68.36 | 64.1 | 59.05 | 55.54 | 53.95 | – | –
285.15 K | 79.54 | 76.72 | 73.46 | 67.82 | 63.61 | 58.67 | 55.2 | 53.67 | – | –
287.15 K | 78.93 | 76.14 | 72.79 | 67.3 | 63.09 | 58.31 | 54.84 | 53.38 | 50.53 | –
289.15 K | 78.19 | 75.4 | 72.06 | 66.67 | 62.58 | 57.91 | 54.52 | 53.01 | 50.3 | –
291.15 K | 77.43 | 74.76 | 71.47 | 66.13 | 62.13 | 57.57 | 54.21 | 52.68 | 50.06 | 47.15
293.15 K | 76.72 | 74.13 | 70.84 | 65.63 | 61.65 | 57.17 | 53.82 | 52.36 | 49.79 | 47.09
295.15 K | 75.97 | 73.52 | 70.29 | 65.13 | 61.23 | 56.81 | 53.45 | 52.06 | 49.53 | 46.84
297.15 K | 75.33 | 72.88 | 69.71 | 64.67 | 60.76 | 56.37 | 53.1 | 51.72 | 49.27 | 46.64
299.15 K | 74.63 | 72.11 | 69 | 64.12 | 60.32 | 55.99 | 52.77 | 51.42 | 49 | 46.39
301.15 K | 74.02 | 71.48 | 68.41 | 63.63 | 59.83 | 55.59 | 52.41 | 51 | 48.75 | 46.18
303.15 K | 73.34 | 70.83 | 67.88 | 63.07 | 59.38 | 55.21 | 52.03 | 50.7 | 48.48 | 45.94
305.15 K | 72.66 | 70.21 | 67.29 | 62.57 | 58.95 | 54.82 | 51.63 | 50.38 | 48.21 | 45.63
307.15 K | 72.02 | 69.63 | 66.63 | 62.12 | 58.51 | 54.47 | 51.27 | 50.04 | 47.94 | 45.39
309.15 K | 71.28 | 69.05 | 66.07 | 61.59 | 58.1 | 54.05 | 50.9 | 49.68 | 47.64 | 45.14
311.15 K | 70.73 | 68.39 | 65.52 | 61.06 | 57.64 | 53.66 | 50.51 | 49.39 | 47.35 | 44.88
313.15 K | 70.05 | 67.84 | 64.91 | 60.58 | 57.16 | 53.28 | 50.11 | 49.02 | 47.09 | 44.64
315.15 K | 69.51 | 67.3 | 64.33 | 60.13 | 56.72 | 52.92 | 49.73 | 48.67 | 46.85 | 44.34
317.15 K | 68.91 | 66.79 | 63.77 | 59.56 | 56.28 | 52.56 | 49.39 | 48.36 | 46.53 | 44.11
319.15 K | 68.26 | 66.18 | 63.12 | 59.12 | 55.79 | 52.15 | 49.09 | 48 | 46.26 | 43.87
321.15 K | 67.66 | 65.6 | 62.59 | 58.67 | 55.33 | 51.79 | 48.75 | 47.69 | 45.99 | 43.58
323.15 K | 67.01 | 65.07 | 62.03 | 58.11 | 54.85 | 51.43 | 48.37 | 47.33 | 45.72 | 43.31
325.15 K | 66.49 | 64.43 | 61.49 | 57.67 | 54.36 | 51.04 | 48.03 | 47 | 45.4 | 43.07
327.15 K | 65.83 | 63.89 | 60.98 | 57.18 | 54 | 50.64 | 47.64 | 46.66 | 45.12 | 42.78
329.15 K | 65.27 | 63.35 | 60.4 | 56.69 | 53.52 | 50.25 | 47.27 | 46.35 | 44.82 | 42.56
331.15 K | 64.72 | 62.78 | 59.87 | 56.23 | 53.03 | 49.87 | 46.94 | 45.99 | 44.53 | 42.27
333.15 K | 64.08 | 62.18 | 59.28 | 55.72 | 52.61 | 49.49 | 46.57 | 45.67 | 44.23 | 42
